Results on 4 compounds are retold here after publication PMC8661056, “Synthesis and Evaluation of [^11C]7-Halogen-2-Phenyl Isoindolone Derivatives: Potential PET Radioligands for in vivo Imaging of 5-HT2C Receptors” (Frontiers in Neuroscience, 2021).

For series [1], the target named is 5-HT5–7. Put plainly: competition binding assay (NIMH PDSP), 5-HT5–7. Conditions: read-out: Binding affinity Ki, 5-HT5–7.
Series [2] deals with 5-HT2B (Homo sapiens, UniProt P41595). The experiment in a line: competition binding assay (NIMH PDSP), 5-HT2B. Particulars: mean of three experiments ± SD, read-out: Binding affinity Ki, 5-HT2B.
5-HT2B, sequence (P41595 whole entry, species assumed): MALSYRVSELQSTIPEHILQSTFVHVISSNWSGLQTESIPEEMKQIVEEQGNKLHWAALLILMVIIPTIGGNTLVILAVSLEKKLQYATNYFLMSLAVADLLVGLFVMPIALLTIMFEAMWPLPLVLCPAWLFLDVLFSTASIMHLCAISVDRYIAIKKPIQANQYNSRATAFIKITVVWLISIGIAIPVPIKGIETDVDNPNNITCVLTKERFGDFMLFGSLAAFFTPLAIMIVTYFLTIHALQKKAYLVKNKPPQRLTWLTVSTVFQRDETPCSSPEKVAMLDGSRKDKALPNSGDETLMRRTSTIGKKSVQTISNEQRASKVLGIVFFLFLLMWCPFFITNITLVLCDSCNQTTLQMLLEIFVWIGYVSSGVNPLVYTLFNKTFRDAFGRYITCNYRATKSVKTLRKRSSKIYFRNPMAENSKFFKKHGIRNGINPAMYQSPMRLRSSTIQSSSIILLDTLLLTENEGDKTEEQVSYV
In series [3] the target is T1, 5-HT2A (Homo sapiens, UniProt P28223). Put plainly: primary binding, 5-HT2A. From the text:
(§1) We selected 6 and 9 for carbon-11 radiolabelling and PET imaging studies.

Series [4] has as its target D1-D5. Put plainly: competition binding assay (NIMH PDSP), dopamine D1-D5. Conditions: read-out: Binding affinity Ki, D1-D5.
Details of series [5]: method as in Hamprecht et al., 2007. Particulars: ref Hamprecht et al., 2007; cited from earlier work.
The target in series [6] is T2, 5-HT2C (Homo sapiens, UniProt P28335).
T2 sequence (P28335 33-458): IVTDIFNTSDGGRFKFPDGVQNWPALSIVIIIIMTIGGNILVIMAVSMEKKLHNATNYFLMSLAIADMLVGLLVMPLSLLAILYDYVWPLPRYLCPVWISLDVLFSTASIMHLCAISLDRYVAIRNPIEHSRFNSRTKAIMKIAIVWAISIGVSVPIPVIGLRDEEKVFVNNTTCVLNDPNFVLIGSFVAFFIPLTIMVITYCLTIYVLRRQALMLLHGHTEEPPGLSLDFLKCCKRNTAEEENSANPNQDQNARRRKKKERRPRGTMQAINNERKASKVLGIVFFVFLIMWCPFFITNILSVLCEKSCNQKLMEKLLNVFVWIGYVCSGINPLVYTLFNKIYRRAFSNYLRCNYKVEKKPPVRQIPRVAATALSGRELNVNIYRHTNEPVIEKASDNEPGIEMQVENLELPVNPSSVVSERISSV
Put plainly: 5-HT2C competition binding assay with [^3H]mesulergine (NIMH PDSP).
Description: as §1

Series [7] concerns the target T3, 5-HT1A (Homo sapiens, UniProt P08908).
T3 sequence (P08908 1-422): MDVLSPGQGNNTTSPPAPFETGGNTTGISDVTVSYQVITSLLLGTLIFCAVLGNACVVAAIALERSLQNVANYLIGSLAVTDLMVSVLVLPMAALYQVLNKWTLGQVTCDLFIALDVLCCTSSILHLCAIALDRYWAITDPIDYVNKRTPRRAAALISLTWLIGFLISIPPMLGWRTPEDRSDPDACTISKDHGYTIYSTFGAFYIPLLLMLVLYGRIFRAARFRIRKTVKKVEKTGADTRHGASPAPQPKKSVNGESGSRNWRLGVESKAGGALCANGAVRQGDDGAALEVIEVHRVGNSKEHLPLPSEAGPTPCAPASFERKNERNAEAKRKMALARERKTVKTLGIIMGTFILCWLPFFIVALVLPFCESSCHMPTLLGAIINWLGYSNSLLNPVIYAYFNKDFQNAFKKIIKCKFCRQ
Put plainly: competition binding assay (NIMH PDSP), 5-HT1A. Particulars: read-out: Binding affinity Ki, 5-HT1A.

The target of series [8] is T1, 5-HT2A. The experiment in a line: competition binding assay (NIMH PDSP), 5-HT2A. Particulars: read-out: Binding affinity Ki, 5-HT2A.
Series [9] in a line: solubility in the injection form. Conditions: 10% ethanol in saline. In kind it is physicochemical. As for the experimental part: To test specific binding of [^11C]6 and [^11C]9 to the choroid plexus and hippocampus, an in vivo microPET blocking study was performed with 0.1 mg/kg SB-242084 30 min prior to injection, respectively. Unfortunately, due to the unexpected low solubility of SB-242084 in the injection form (10% ethanol in saline), the administered SB-242084 in soluble form to the monkeys was likely much less than the target 0.1 mg/kg. As a result, the uptake of [^11C]6 and [^11C]9 in the choroid plexus and hippocampus was still present.

The target in series [10] is 5-HT2CR. Particulars: no reference given; cited from earlier work.
Series [11] addresses 5HT2CR. The arrangement: method as in Finnema et al., 2014. Particulars: ref Finnema et al., 2014; cited from earlier work.
Series [12] addresses 5HT2AR. The arrangement: method as in Finnema et al., 2014. Conditions: ref Finnema et al., 2014; cited from earlier work.
Series [13] has as its system 5-HT2CR. The arrangement: method as in Kim et al., 2017. Particulars: rat brain; ref Kim et al., 2017; cited from earlier work.

Each structure is given as a SMILES string. Some results are limits rather than exact numbers.

T1 sequence (P28223 whole entry, species assumed): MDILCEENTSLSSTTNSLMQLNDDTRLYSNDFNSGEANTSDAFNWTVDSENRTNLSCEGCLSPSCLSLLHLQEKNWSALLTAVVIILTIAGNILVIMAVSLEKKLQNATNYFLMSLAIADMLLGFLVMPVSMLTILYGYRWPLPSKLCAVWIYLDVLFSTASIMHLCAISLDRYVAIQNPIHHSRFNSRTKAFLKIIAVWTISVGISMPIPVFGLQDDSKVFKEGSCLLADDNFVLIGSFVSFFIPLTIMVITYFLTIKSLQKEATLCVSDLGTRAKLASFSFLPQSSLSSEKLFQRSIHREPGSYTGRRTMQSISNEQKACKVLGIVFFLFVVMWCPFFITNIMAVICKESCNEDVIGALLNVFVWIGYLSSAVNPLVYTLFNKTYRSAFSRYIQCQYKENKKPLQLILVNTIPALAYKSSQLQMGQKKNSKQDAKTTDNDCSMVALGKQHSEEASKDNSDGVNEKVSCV

Consider `COc1ccc(N2Cc3cccc(Br)c3C2=O)cc1OCCN1CCC(C)CC1` [Compound 7], for which the Ki in series [1] was more than 1000 nM; in series [2] it was 177 ± 75 nM; in [4] it was more than 1000 nM; in series [6] (competition with [^3H]mesulergine, mean of three experiments ± SD, read-out: Binding affinity Ki, 5-HT2C), 2.9 ± 0.7 nM; in [7], more than 1000 nM; in series [8] it was more than 1000 nM. In addition, the “primary bindings at 5-HT2A” value in series [3] is on record as less than 50%. In series [5], the “brain permeability as measured by brain to blood plasma ratio” value is given as “great”. Besides, the “5-HT2C binding less than that for 9” value in [6] (relative to compound 9) is recorded as 2–3 times.

Consider `Cc1cc2c(cc1Cl)N(C(=O)Nc1ccc(Oc3cccnc3C)nc1)CC2` [SB-242084], for which the “solubility in the injection form” value in series [9] is on record as “low”. For the same compound, the Ki in series [10] was 3.6 nM.

As to `COc1cc(CCNCc2ccccc2O[11CH3])c(OC)cc1Br` [[^11C]Cimbi-36], the Ki in series [11] is 1.7 nM; in series [12], 0.5 nM.

As for `C[C@H](Cc1cccc([18F])c1)Oc1nc(N2CCNC[C@H]2C)ncc1F` [[^18F]4, [^18F]4-(3-Fluorophenethoxy)pyrimidine], the “ratios of uptake in regions of interest to cerebellum” value in series [13] is reported as “low to moderate”.

The term Ki denotes the equilibrium dissociation constant of an inhibitor or competing ligand from its target.
